Results from patent publication US20050032646A1, “Agents for the regulation of gametophytic self-incompatibility and a control method for the breakdown of gametophytic self-incompatibility using the agents” (priority 2002, published 2005).

Columns and labels:
Hongro apple flowers = assay: Side-effect of the agents toward Hongro apple flowers; format: in vivo; parameters: key: 0: no side-effect is observed, and it is same as no treatment of the agents; 1: the side-effect are observed in flowers, but they recover to normal fruition in a week; 2: a fall-out of flowers and 10% decrease in fruition rate; 3: about 40% loss; 4: 60% loss; 5: a severe loss in fruition
Description: To investigate the side-effect of the agent, various concentrations of the agents were treated to the flowers of Hongro apple.

[1] = test system: style-specific S RNase of Fuji apple; assay: Inhibition of the activity of a style-specific S RNase by the agents; format: biochemical; details: optical density at 260 nm (A260), agent 2.0 mM, no treatment 1.10
Description: Inhibition of S RNase activity by an agent of the present invention was measured as follows: The standard solution of 500 μL of 10 mM sodium phosphate (pH 7.0) with an agent (2.0 mM), and 500 μL of torula yeast rRNA (5 mg/mL) was pre-incubated for 10 min at 37° C. To the substrate solution, the 20 μL of the style-specific S RNase (200 ng) of Fuji apple was added, then the solution was incubated for 30 min at 37° C. A fraction of 200 μL was collected and 40 μL of stop buffer (ice-cold 25% HCIO4, 0.75% uranyl acetate) was added, then mixed and centrifuged at 12,000 rpm for 5 min. And 50 μL of the supernatant was diluted with 950 μL of dd H2O, then the solution was centrifuged and measured the optical density at 260 nm (A260) (Singh A. et al., Plant Physilolgy, 96: 61-68,1991).

20-Century pear = assay: Breakdown of the self-incompatibility in 20-century pear (fertilization rate, field); format: in vivo; details: 600 μM, sprayed 5 and 2 days before full bloom, 14 days after the treatment
Description: In a field test, 20-Century pear (the Rosaceae) which has self-incompatibility system was isolated single-genetically by covering up selected branches or whole plants with a fine-meshed net to exclude any pollinating insects. The aqueous of 600 μM solution of an agent of the present invention was treated enough to get-wet flowers with a micro-spray at 9:00-11:00 AM. The agent solution was micro-sprayed 2 times; first at 5 days before full bloom and second at 2 days before full bloom. The reference was artificial cross-pollination at full bloom. The fertilization rate was investigated 14 days after the treatment and compared with no treatment and artificial cross-pollination.

Safinia purple = assay: Breakdown of self-incompatibility and seed production of Safinia purple; format: in vivo, Safinia purple (petunia)
Description: To establish the application method of the SI suppressing agent for the seed production, a field experiment was performed with Safinia purple ( the Solanaceae, a petunia developed by Suntory Ltd).
To a 15 cm-radii round pot, were added fine soil (pH 5.6) and 2 gr of complex fertilizer (including N, P, K 8% each) and they were mixed well. Safinia purple of 10 cm height were planted and raised in a green house for 2 weeks. At the period of 30 % bloom the diluted aqueous solutions of Zn(II) propionate or Cu(II) propionate agent were micro-sprayed enough to wet a flower and a style(3 ml). Two days after treatment of the agent, self-pollen was pollinated to its own style and the seed production was investigated. The experiments were repeated twice.

Lycopersicon peruvianum = assay: Breakdown of the self-incompatibility in Lycopersicon peruvianum (fruition rate, greenhouse); format: in vivo; details: agent 0.1 mM
Description: To verify the inhibition of a style-specific S RNase and the suppression of SI system with an agent of the present invention in a practical cultivating Environment, a wild-type tomato (Lycopersicon peruvianum) which has a gametophytic SI system was cultivated in a greenhouse at genetically insulated environment and was treated with an S RNase inhibitor of the present invention.
To determine the treatment period of an S RNase inhibitor, the inhibitor was applied to flowers either at the early blooming period (budding formation period to full blooming), or the middle blooming period (full blooming), or the late blooming period (1 day after full blooming period of petal), respectively. Each inhibitors in 0.1 mM aqueous solution (except the ZnSO4 (1 mM) and CuSO4 (1.0 mM) solution) was treated enough to get-wet flowers ith a micro-spray at 9:00-11:00 AM when the pollination of plant occurs most actively. The experiment with 25 blooming flowers (organ containing a stamen, a stigma, a petal, etc.) was repeated 4 times and the fruition rate ws investigated and the results are shown in Table 2.

Hongro apple = assay: Breakdown of the self-incompatibility in Hongro apple (self-pollination rate, field); format: in vivo; details: 25 days after the treatment
Description: In the field application experiment, Hongro apple (the Rosaceae) which has a very low self-pollination rate (<5%) was isolated single-genetically by covering up whole plants with a fine-meshed net to exclude any pollinating insects. The agent of the present invention was treated enough to get-wet flowers at various concentrations with a micro-spray at 9:00-11:00 AM. The target of the agent was the first-blooming primary apple flower. The self-pollination rate was investigated 25 days after the treatment and compared with no treatment and artificial cross-pollination.

OD (2.0 mM) [1] | Structure (SMILES) | side-effect index (Hongro apple flowers; 1.0 mM) | side-effect index (Hongro apple flowers; 5.0 mM) | side-effect index (Hongro apple flowers; 20.0 mM) | fertilization rate (20-Century pear) [%] | seed production relative (%) to control (Safinia purple; concn 10 μM) [%] | self-pollination pollination ratio (%) (Safinia purple; concn 10 μM) | self-pollination relative (%) to control (Safinia purple; concn 10 μM) [%] | seed production relative (%) to control (Safinia purple; concn 30 μM) [%] | self-pollination pollination ratio (%) (Safinia purple; concn 30 μM) | self-pollination relative (%) to control (Safinia purple; concn 30 μM) [%] | seed production relative (%) to control (Safinia purple; concn 100 μM) [%] | self-pollination pollination ratio (%) (Safinia purple; concn 100 μM) | self-pollination relative (%) to control (Safinia purple; concn 100 μM) [%] | seed production relative (%) to control (Safinia purple; concn 300 μM) [%] | self-pollination pollination ratio (%) (Safinia purple; concn 300 μM) | self-pollination relative (%) to control (Safinia purple; concn 300 μM) [%] | seed production relative (%) to control (Safinia purple; concn 1000 μM) [%] | self-pollination pollination ratio (%) (Safinia purple; concn 1000 μM) | self-pollination relative (%) to control (Safinia purple; concn 1000 μM) [%] | further results
0.73 | CCC(=O)[O-].CCC(=O)[O-].[Cu+2] [Cu(II) Propionate] | 0 | 0 | 1 | 53 | 485.7 | 47.6 | 2000 | 1714.3 | 52.1 | 2500 | 2228.6 | 82.6 | 3800 | 1471.4 | 74.3 | 2600 | 2342.9 | 76.2 | 3200 | 
0.64 | COCCOCC(=O)[O-].COCCOCC(=O)[O-].[Zn+2] [Zn(II) 2-methoxyethoxyacetate] | 0 | 0 | 1 | 53 |  |  |  |  |  |  |  |  |  |  |  |  |  |  |  | fruition rate (Lycopersicon peruvianum; treated 1 day after full blooming): 0%; fruition rate (Lycopersicon peruvianum; treated 1 day before full blooming): >60%; fruition rate (Lycopersicon peruvianum; treated 2 days after full blooming): 0%; fruition rate (Lycopersicon peruvianum; treated 2 days before full blooming): >50%; fruition rate (Lycopersicon peruvianum; treated 3 days before full blooming): >10%; fruition rate (Lycopersicon peruvianum; treated 4 days before full blooming): <10%; fruition rate (Lycopersicon peruvianum; treated 5 days before full blooming): 0%; fruition rate (Lycopersicon peruvianum; treated 6 days before full blooming): 0%; fruition rate (Lycopersicon peruvianum; treated 7 days before full blooming): 0%; fruition rate (Lycopersicon peruvianum; treated at full blooming (0 day)): >40%; self-pollination rate (Hongro apple; concentration 0.01 mM): >10%; self-pollination rate (Hongro apple; concentration 0.03 mM): >40%; self-pollination rate (Hongro apple; concentration 0.10 mM): >60%; self-pollination rate (Hongro apple; concentration 0.30 mM): >60%; self-pollination rate (Hongro apple; concentration 1.0 mM): >60%
0.69 | CCC(=O)[O-].CCC(=O)[O-].[Zn+2] [Zn(II) Propionate] | 0 | 0 | 1 | 45 | 514.3 | 29.4 | 1000 | 442.9 | 42.4 | 1400 | 1057.1 | 47.1 | 1600 | 1128.6 | 63.6 | 2100 | 1628.6 | 64.5 | 2000 | self-pollination rate (Hongro apple; concentration 0.01 mM): >10%; self-pollination rate (Hongro apple; concentration 0.03 mM): >30%; self-pollination rate (Hongro apple; concentration 0.10 mM): >50%; self-pollination rate (Hongro apple; concentration 0.30 mM): >50%; self-pollination rate (Hongro apple; concentration 1.0 mM): >50%
